According to patent US5366983A, “Use of quaternary ammonium compounds to remove salmonella contamination from meat products” (The Board of Trustees of The University of Arkansas, priority 1992, dated 1994):
Entries after “also recorded” stand apart in the source; their conditions may differ. Read-outs that look alike come from different tables or passages of the source.

How the values were obtained:
[1] = tested on: Salmonella typhimurium TA100; test: Salmonella reversion assay, TA100
Protocol: (§1) Test strains TA98 and TA100 were obtained from Bruce N. Ames (University of California, Berkley, Calif.). Mutagenicities were determined both in the absence of and in the presence of a mammalian liver S9 activating system. S9 is the 9000×g supernatant prepared from liver homogenates from Aroclor 1254 stimulated male Sprague Dawley rats. The S9 was purchased from Molecular Toxicology, Inc. (Anapolis, Md.).
(§2) Bacterial broth cultures were grown overnight at 37° with shaking in Oxoid Broth #2. For assays in the absence of S9, a 0.5 ml aliquot of 100 mM Sodium Phosphate Buffer, pH 7.4, was added to sterile 13×100 mm capped culture tubes. For assays in the presence of S9, a 0.5 ml aliquot of 10% S9 mix was added. The S9 mix consisted of 8 mM magnesium chloride, 33 mM potassium chloride, 5 mM glucose-6-phosphate, 4 mM NADP, 100 mM sodium phosphate, pH 7.4 and S9 in a concentration of approximately 1.46 mg protein/ml.
(§3) The culture tubes were placed in an ice bath and 0.1 ml of the bacterial suspension and 0.1 ml of a DMSO solution of the test compound were added. The mixture was vortexed gently and incubated at 37° for 20 minutes with shaking in a water bath. Molten top agar (2.0 ml) containing 0.5 mM histidine HCl and 0.5 mM biotin were added, and the mixture was vortexed gently and poured onto a minimal glucose plate. After allowing the agar to solidify, the plates were inverted and placed in a 37° incubator in the dark for 48 hours. The revertant (mutant) colonies were counted and the background lawn was examined on all plates. A response that was two times that of the DMSO solvent control was considered a positive response.

[2] = tested on: Salmonella typhimurium TA98; test: Salmonella reversion assay after heating at 205° C., TA98; type: cell-based
Protocol: (§4) Test strains TA98 and TA100 were used. Again, mutagenicities were determined both in the absence and in the presence of the mammalian liver S9 activating system.
(§5) A response that was two times that of the solvent control was considered a positive response.

[3] = tested on: Salmonella typhimurium TA98; test: Salmonella reversion assay, TA98
Protocol: as §1, §2, §3

[4] = tested on: Salmonella typhimurium TA100; test: Salmonella reversion assay after heating at 205° C., TA100; type: cell-based
Protocol: as §4, §5

[5] = tested on: Salmonella typhimurium on chicken skin; test: Effect of surfactants on Salmonella attached to chicken skin, drumsticks (Tables F1-F4); settings: 4° C.
Protocol: The following experiments utilizing chicken legs were conducted to determine the killing potential of a variety of surfactants against Salmonella on the skin and free in solutions. To this end, chicken legs obtained from the Department of Agriculture at the University of Arkansas, Fayetteville, were incubated for thirty minutes at room temperature with a 1:5000 dilution of Salmonella typhimurium. The chicken legs were removed five at a time and then rinsed twice in tap water to remove the unattached and excess Salmonella. The rinse water was sampled, diluted, and then plated onto XLD pour plates. […] The chicken legs were then removed and rinsed twice in tap water to remove the released Salmonella and excess chemicals. Rinses were then sampled, diluted, and then plated onto XLD pour plates.
The chicken legs were then individually washed with 100 ml sterile double distilled water, and then shaken fifty times. Samples of the wash H2 O were diluted and plated onto XLD pour plates. The chicken legs were further swabbed after the washing step above. The swabs were then plated onto the XLD plates. A set of wash samples were enriched with TT Broth Base Hajna and then plated onto XLD plates.
All of the samples were plated in 1 ml aliquots onto XLD pour plates. A positive control sample incubated in sterile double distilled water at 4° C. was run for each of the aforementioned conditions. Treatments occurred at both 4° C. and 25° C. The data is reported as the mean number of CFU/ml. The ratio in the table represents the number of chicken legs out of a sample of ten chicken legs producing the notated number of colonies, as indicated by the +, ++, +++, or ++++.

[6] = tested on: Salmonella typhimurium on chicken skin; test: Prevention of attachment of Salmonella on excised chicken skin (Table F5); settings: for CFU/ml on XLD agar: rinse water; for CFU/ml on XLD agar / Nitrocellulose lift (# of colonies): 30 minutes at room temperature; for Nitrocellulose lift (# of colonies): skin
Protocol: To determine the ability of surfactants to inhibit attachment or produce detachment of Salmonella, the following experiment was conducted. A hole was bored into the bottom of a 150 ml specimen cup. Chicken skin was excised from a drum stick and then placed over the cap of the specimen cup, and then the cap was screwed on. S. typhimurium was diluted 1:5000 with PBS or a surfactant. The surfactants were diluted appropriately. The skin was then inoculated with the solution containing the S. typhimurium and the surfactant for 30 minutes at room temperature.
Following incubation, the skin was washed. The rinse water was diluted appropriately in PBS and then plated onto XLD pour plates. The S. typhimurium was counted and reported as CFU/ml. The skin was swabbed so as to remove any remaining S. typhimurium using a nitroellulose lift and the CFU's/ml on the lift were also counted.

[7] = tested on: Salmonella typhimurium ATCC 14028 attached to human buccal epithelial cells; type: cell-based; settings: for adherence, mean value of attached bacteria: Table A-1
Protocol: Studies were conducted on the attachment of Salmonella typhimurium to human buccal epithelial cells using the modified procedure of Boussard et al., International J. Pharmaceutics 53: 253-256 (1989). In this study, the activities of cationic and anionic surfactant compounds as well as certain chelating agents were compared on the detachment of S. typhimurium from epithelial cells.
To this end, bacteria were grown on nutrient agar for 16 hours at 37° C. The cells were suspended in 0.008 M phosphate buffered saline (PBS) at pH 7.2 and washed two times at 4500 rpm for 10 minutes. The last suspension was diluted in PBS to obtain a cell concentration of 0.5 to 1×10^9 cells/ml. Human epithelial cells were obtained by swabbing the buccal surface of a healthy, nonsmoking donor. […] The number of living cells was estimated and the suspension diluted to 0.5 to 1×10^5 cells/ml.
Next, the suspension of the human buccal cells was mixed with an equal volume of the bacterial suspension (3.0 ml), or PBS (0.8 ml). Contact was allowed for 1.5 hours at 35° C. under agitation. The mixtures were then centrifuged for 10 minutes at 4500 rpm. Each suspension, 1.0 ml, was transferred into Eppendorf vials and washed with PBS at 1500 rpm for 10 minutes. After the washing, the cells were treated with 1.0 ml PBS or 1.0 ml of the test chemical solution. Treatment was performed by suspending and vortexing on a low speed for 30 seconds followed by centrifugation at 1500 rpm for 10 minutes.
After the treatment, the cells were washed once with PBS and then 20 μl of erythrosin B was added to each vial. The suspension was centrifuged at 1500 rpm for 10 minutes, and the cells were washed twice under the same conditions. The final pellet was suspended in 300 μl of PBS. This suspension was spread out onto microscope slides and dried overnight at room temperature. After counter staining with methylene blue, the slides were microscopically examined under oil immersion.

[8] = tested on: Salmonella typhimurium ATCC 14028; test: Effect on viability of Salmonella in suspension (Tables D-1 to D-3); type: cell-based; settings: for bacterial viability: Table D-3
Protocol: EC50 values for four of the compounds were calculated from the bactericidal activity of the compounds as a function of molar concentration by a nonlinear regression algorithm.
In addition to the quaternary ammonium compounds, the antimicrobial activities of chelating agents Na2 -EDTA and EGTA were investigated. Na2 -EDTA was purchased from the Sigma Chemical Company (St. Louis, Mo.). Na2 -EDTA was dissolved in 0.04 M PPB prior to the assay and further dilutions were made in the same buffer.
EGTA was purchased from the Aldrich Chemical Company (Milwaukee, Wis.). EGTA was dissolved in 0.04 M PPB according to the procedure described by Harafuji and Ogawa (J. Biochem. 87:1305-1312 (1980)). After heating EGTA for 15 minutes at 80° C., the pH was adjusted to 7.0 by addition of NaOH. EGTA was filter-sterilized using a 0.2 μm Acro disc filter (Gelman Sciences; Ann Arbor, Mich.) prior to the assay. Further dilutions were made in sterile PPB.

Molecule	Enrichment, chicken legs out of ten ([5]; 0.1%)	Rinse H2O ([5]; 0.1%)	Surfactant Solution ([5]; 0.1%)	Swabs, chicken legs producing the notated number of colonies ([5]; 0.1%)	Swabs, colonies ([5]; 0.1%)	Wash H2O, chicken legs producing the notated number of colonies ([5]; 0.1%)	Wash H2O, colonies ([5]; 0.1%)	Enrichment, chicken legs out of ten ([5]; 0.5%)	Rinse H2O ([5]; 0.5%)	Surfactant Solution ([5]; 0.5%)	Swabs, chicken legs producing the notated number of colonies ([5]; 0.5%)	Swabs, colonies ([5]; 0.5%)	Enrichment, chicken legs out of ten ([5]; 1.0%)	Rinse H2O ([5]; 1.0%)	Surfactant Solution ([5]; 1.0%)	Swabs, chicken legs producing the notated number of colonies ([5]; 1.0%)	Swabs, colonies ([5]; 1.0%)	CFU/ml on XLD agar [6] [CFU/ml]	other results
Nc1ccc2cc3ccccc3cc2c1 [2aminoanthracene, reference compound]	–	–	–	–	–	–	–	–	–	–	–	–	–	–	–	–	–	–	control reversion frequency ([1]; TA100, +S9, 2.5 μg/plate): 1497 ± 68 Revertants/plate; control reversion frequency ([2]; TA98, +S9, 2.5 μg/plate): 909 ± 85 Revertants/plate; control reversion frequency ([3]; TA98, +S9, 2.5 μg/plate): 901 ± 90 Revertants/plate; control reversion frequency ([4]; TA100, +S9, 2.5 μg/plate): 1103 ± 84 Revertants/plate
CC(C)(C)CC(C)(C)c1ccc(OCCOCC[N+](C)(C)Cc2ccccc2)cc1 [Benzethonium Chloride, reference compound]	2/10	+ (1-10)	0 CFU/ml	9/10	++ (11-100)	1/10	+ (1-10)	0/10	+ (1-10)	0 CFU/ml	8/10	++ (11-100)	0/10	+ (1-10)	0 CFU/ml	5/10	++ (11-100)	10	Wash H2O, chicken legs producing the notated number of colonies ([5]; 0.5%): 0/10; Wash H2O, chicken legs producing the notated number of colonies ([5]; 1.0%): 0/10; preventing attachment of S. typhimurium on chicken skin (in words) [6]: most effective in preventing Salmonella contamination of chicken skin; Nitrocellulose lift (# of colonies) [6]: 250 # of colonies
CCCCCCCCCCCCCCCC[n+]1ccccc1 [CPB, cetylpyridinium bromide]	–	–	–	–	–	–	–	–	–	–	–	–	–	–	–	–	–	–	adherence, mean value of attached bacteria ([7]; 10 ug/ml): 28 ± 28; adherence, mean value of attached bacteria ([7]; 25 ug/ml): 23 ± 17; adherence, mean value of attached bacteria ([7]; 50 ug/ml): 25 ± 10
C[C@H](CCC(=O)O)[C@H]1CC[C@H]2[C@@H]3CC[C@@H]4C[C@H](O)CC[C@]4(C)[C@H]3C[C@H](O)[C@]12C [Deoxycholic Acid, reference compound]	10/10	+ (1-10)	++ (11-100)	10/10	++ (11-100)	10/10	++ (11-100)	10/10	+ (1-10)	+ (1-10)	10/10	+ (1-10)	10/10	+ (1-10)	++ (11-100)	9/10	++ (11-100)	90	Wash H2O, chicken legs producing the notated number of colonies ([5]; 0.5%): 10/10; Wash H2O, colonies ([5]; 0.5%): ++ (11-100); Wash H2O, chicken legs producing the notated number of colonies ([5]; 1.0%): 10/10; Wash H2O, colonies ([5]; 1.0%): ++ (11-100)
O=C(O)CN(CCOCCOCCN(CC(=O)O)CC(=O)O)CC(=O)O [EGTA, reference compound]	–	–	–	–	–	–	–	–	–	–	–	–	–	–	–	–	–	–	effect on bacteria attached to the epithelial cells (in words) ([7]; chelating agents, Na2-EDTA at 1250 μg/ml): no significant effect; bacterial viability ([8]; 1,250 μg/ml): 1.55 ± 0.09 × 10^9 CFU/ml; bacterial viability ([8]; 2,500 μg/ml): 1.45 ± 0.03 × 10^9 CFU/ml; bacterial viability ([8]; 5,000 μg/ml): 1.51 ± 0.18 × 10^8 CFU/ml; bactericidal effect against S. typhimurium (in words) ([8]; viability testing in suspension): ineffective; also recorded: no bactericidal effect
O=C1NCCN1c1ncc([N+](=O)[O-])s1 [Niridazole, reference compound]	–	–	–	–	–	–	–	–	–	–	–	–	–	–	–	–	–	–	control reversion frequency ([1]; TA100, -S9, 0.2 μg/plate): 637 ± 57 Revertants/plate; control reversion frequency ([2]; TA98, -S9, 0.2 μg/plate): 126 ± 7 Revertants/plate; control reversion frequency ([3]; TA98, -S9, 0.2 μg/plate): 358 ± 19 Revertants/plate; control reversion frequency ([4]; TA100, -S9, 0.2 μg/plate): 729 ± 30 Revertants/plate
Benzalkonium Chloride [reference compound]	1/10	+ (1-10)	0 CFU/ml	6/10	+ (1-10)	4/10	+ (1-10)	1/10	0 CFU/ml	0 CFU/ml	1/10	+ (1-10)	0/10	0 CFU/ml	0 CFU/ml	1/10	++ (11-100)	0	Wash H2O, colonies ([5]; 0.5%): 0 CFU/ml; Wash H2O, colonies ([5]; 1.0%): 0 CFU/ml; Nitrocellulose lift (# of colonies) [6]: OG(R)
